In US20090155767A1, “Methods for a predictive diagnostic test for tamoxifen” (priority 2007, published 2009):
Read-outs that look alike come from different tables or passages of the source.

Legend:
[1] = test system: stage II invasive breast cancer (ER+ subset); conditions: Cox univariate, tamoxifen vs control, cited from earlier work
[2] = test system: stage II invasive breast cancer (ER+ subset); assay: Randomized clinical trial of two years of adjuvant tamoxifen vs no treatment (Swedish SBII:2a); recurrence-free survival by biomarker subgroup; format: in vivo, human; conditions: for HR RFS: ER+
Source text: From 1986 to 1991, 564 patients enrolled in a a randomized clinical trial for adjuvant tamoxifen treatment in early breast cancer (Swedish SBII:2a)(15). Criteria for enrollment included premenopausal status or age less than 50 years, with stage II invasive breast cancer. Patients were randomized to receive two years of tamoxifen (n=276) or no treatment (control, n=288), and were followed for disease-free and overall survival, with a median follow-up of 13.9 years. A detailed description of the trial and results has previously been published (15,16).
For analysis of tamoxifen response, only the ER+ subset of patients were included (16). By IHC, a cut-off value of at least 10% nuclear immunoreactivity was used to classify patients as ER-positive.
The statistical calculations were performed using SPSS Version 13.0 (SPSS, Chicago, Ill.) and Stata Version 9.2 (StataCorp, College Station, Tex.). Pearson's correlation coefficient (R) was used to assess the correlation between log AQUA-EGFR scores from redundant tumor cores and Spearman's Rho to assess the correlation between AQUA-EGFR score and other variables. Recurrence-free survival (RFS) was chosen as endpoint in the present study. RFS included breast cancer specific death, distant, regional and local recurrences and all analyses were performed with the intention to treat rule. The AQUA-EGFR score was dichotomized at the median in order to avoid bias problems associated with cut-off optimization. Kaplan-Meier plots were used to illustrate the survival in high and low EGFR, respectively, and the log rank test to test for equality of survival curves. Hazard ratios were estimated using Cox regression. Proportional hazards assumptions were checked using Schoenfeld's test. The null hypothesis of equal treatment effects in high and low EGFR were evaluated using a Cox model with a term for the interaction between EGFR class and treatment. Cox models with continuous AQUA-EGFR score were also fitted. The original score and a logarithmic transformation of the score were evaluated. […] All p-values corresponded to two-sided tests and values less than 0.05 were considered significant.

Which “HR RFS” value ([1]; HER2 IHC 0-2+ (Herceptest), N = 252) does the source give for CC/C(=C(\c1ccccc1)c1ccc(OCCN(C)C)cc1)c1ccccc1 [Tamoxifen] here?
The value was 0.64.

And the “HR RFS” value ([1]; HER2 IHC 3+ (Herceptest), N = 23)?
Its value is 0.67.

What about the “HR RFS” value ([2]; Cox multivariate, Tamoxifen Treatment (+/-), n = 324 (available data in 186 patients)) of the same compound?
The value was 0.571.

What about the “HR RFS” value ([2]; Cox univariate, tamoxifen vs control, EGFR-AQUA High, n = 73) of the same compound?
The value was 1.14.

And the “HR RFS” value ([2]; Cox univariate, tamoxifen vs control, EGFR-AQUA Low, n = 113)?
The value was 0.43.

And the “HR RFS” value ([2]; Cox univariate, tamoxifen vs control, EGFR-IHC High, n = 27)?
Its value is 0.73.

And the “HR RFS” value ([2]; Cox univariate, tamoxifen vs control, EGFR-IHC Low, n = 232)?
Its value is 0.57.

And the “HR RFS” value ([2]; Cox univariate, tamoxifen vs control, HER2-AQUA High, N = 10)?
The value was 0.28.

And the “HR RFS” value ([2]; Cox univariate, tamoxifen vs control, HER2-AQUA Low, N = 231)?
Its value is 0.64.

And the “Effect of two years of adjuvant tamoxifen on RFS (log rank, Kaplan-Meier)” value ([2]; ER+ patients with low EGFR expression (AQUA), n=113, p=0.01)?
Its value is “significant effect”.

And the “Effect of two years of adjuvant tamoxifen on RFS (log rank, Kaplan-Meier)” value ([2]; ER+ patients, EGFR high group (AQUA), n=73, p=0.69)?
Its value is “no treatment effect”.

And the “10-year RFS” value ([2]; ER+ tamoxifen treated patients with high EGFR expression (AQUA))?
The value was 52%.

And the “10-year RFS” value ([2]; ER+ tamoxifen treated patients, EGFR low group (AQUA))?
Its value is 78%.

And the “Association of high EGFR expression with outcome in tamoxifen-treated patients” value ([2]; ER+ tamoxifen-treated patients, high vs low EGFR (AQUA), Log-Rank p=0.0411)?
Its value is “shorter time to recurrence and breast cancer death”.
